Calls of active or inactive are those of the source. The calls are words filed in the database; no cut-off is given here.
Assays:
[1] = system: MCF-10A; test: Cytotoxicity against human MCF10A cells at IC50 in wound healing assay after 24 hrs by MTT assay; format: cell-based
[2] = system: MDA-MB-231; test: Antiinvasive activity against human MDA-MB-231 cells at 10 to 20 uM after 24 hrs by Cultrex BME assay; format: functional, cell-based
[3] = system: MDA-MB-231; test: Cytotoxicity against human MDA-MB-231 cells after 24 hrs by MTT assay; settings: MDA-MB-231, 24 h
[4] = system: MCF-10A; test: Cytotoxicity against human MCF10A cells at IC50 in MDA-MB-231 MTT assay after 24 hrs by MTT assay; format: cell-based
[5] = system: MDA-MB-231; test: Antimigratory activity against human MDA-MB-231 cells after 24 hrs by wound healing assay; settings: MDA-MB-231, 24 h
[6] = system: MDA-MB-231; test: Antimigratory activity against human MDA-MB-231 cells at 25 uM after 24 hrs by wound healing assay; format: functional; settings: for inhibition at 25 µM: MDA-MB-231, 24 h
[7] = system: MDA-MB-231; test: Antiinvasive activity against human MDA-MB-231 cells assessed as cell invasion at 10 uM after 24 hrs by Cultrex BME assay; format: functional
[8] = system: MDA-MB-231; test: Antiinvasive activity against human MDA-MB-231 cells assessed as cell invasion at 20 uM after 24 hrs by Cultrex BME assay; format: functional
[9] = biological target: T1, Hepatocyte growth factor receptor (Homo sapiens, UniProt P08581); settings: 25 to 100 nM
Description: Competitive inhibition of c-MET phosphorylation (unknown origin) at 25 to 100 nM after 60 mins by Omnia kinase assay

[10] = biological target: T1, Hepatocyte growth factor receptor; test: Inhibition of c-MET phosphorylation (unknown origin) at 10 uM after 1 hr by Z'-LYTE kinase assay
[11] = system: MDA-MB-231; test: Antimigratory activity against human MDA-MB-231 cells at 10 uM after 24 hrs by wound healing assay; format: functional, cell-based
[12] = biological target: T1, Hepatocyte growth factor receptor; test: Competitive inhibition of c-MET phosphorylation (unknown origin) after 60 mins by Omnia kinase assay
[13] = system: MDA-MB-231; test: Antiinvasive activity against human MDA-MB-231 cells at 20 uM after 24 hrs by Cultrex BME assay; format: functional; settings: MDA-MB-231, 24 h
[14] = system: MDA-MB-231; test: Antimigratory activity against human MDA-MB-231 cells at 50 uM after 24 hrs by wound healing assay; format: functional, cell-based

T1 sequence (P08581 whole entry): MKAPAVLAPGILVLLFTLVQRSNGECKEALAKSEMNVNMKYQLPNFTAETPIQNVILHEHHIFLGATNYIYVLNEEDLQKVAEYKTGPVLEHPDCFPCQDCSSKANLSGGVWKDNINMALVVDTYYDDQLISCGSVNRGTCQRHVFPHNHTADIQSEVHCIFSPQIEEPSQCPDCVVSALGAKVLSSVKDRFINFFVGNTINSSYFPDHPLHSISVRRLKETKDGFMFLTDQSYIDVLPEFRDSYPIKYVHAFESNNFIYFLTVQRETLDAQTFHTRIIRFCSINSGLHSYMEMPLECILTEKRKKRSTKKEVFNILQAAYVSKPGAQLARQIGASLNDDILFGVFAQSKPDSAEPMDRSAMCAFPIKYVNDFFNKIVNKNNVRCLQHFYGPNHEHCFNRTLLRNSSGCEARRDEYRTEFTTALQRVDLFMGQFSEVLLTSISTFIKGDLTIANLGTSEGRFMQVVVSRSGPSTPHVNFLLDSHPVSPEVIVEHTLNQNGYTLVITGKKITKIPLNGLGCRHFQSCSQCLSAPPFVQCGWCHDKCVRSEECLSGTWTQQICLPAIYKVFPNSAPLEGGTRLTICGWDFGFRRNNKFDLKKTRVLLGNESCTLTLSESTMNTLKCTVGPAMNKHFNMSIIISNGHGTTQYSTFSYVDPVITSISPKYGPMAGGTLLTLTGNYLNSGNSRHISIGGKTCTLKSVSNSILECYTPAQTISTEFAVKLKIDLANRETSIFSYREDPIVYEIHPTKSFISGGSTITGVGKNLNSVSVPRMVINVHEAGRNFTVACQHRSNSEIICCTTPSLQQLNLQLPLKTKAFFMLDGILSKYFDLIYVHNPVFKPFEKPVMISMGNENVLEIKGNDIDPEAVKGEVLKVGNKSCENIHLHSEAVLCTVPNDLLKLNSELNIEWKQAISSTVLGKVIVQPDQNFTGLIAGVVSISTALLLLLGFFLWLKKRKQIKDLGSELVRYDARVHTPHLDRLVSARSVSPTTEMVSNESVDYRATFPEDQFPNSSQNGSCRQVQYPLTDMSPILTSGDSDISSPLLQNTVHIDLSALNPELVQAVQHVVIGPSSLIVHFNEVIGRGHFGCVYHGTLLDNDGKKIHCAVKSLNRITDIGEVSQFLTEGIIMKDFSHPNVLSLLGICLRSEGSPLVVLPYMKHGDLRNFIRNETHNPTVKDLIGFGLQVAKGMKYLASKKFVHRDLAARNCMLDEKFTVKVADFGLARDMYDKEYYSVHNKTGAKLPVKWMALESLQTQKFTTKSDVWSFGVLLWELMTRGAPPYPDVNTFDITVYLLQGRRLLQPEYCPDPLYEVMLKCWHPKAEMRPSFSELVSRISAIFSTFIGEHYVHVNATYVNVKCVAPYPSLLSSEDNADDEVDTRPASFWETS

Row | Compound | IC50 [5] | Activity [1] | inhibition [2] | IC50 [3] | Activity [4] | further results
1 | O=C(NCc1ccccc1)OCCc1ccc(OC(=O)NCc2ccccc2)cc1 | > 100 µM | Non-toxic | inactive | > 100 µM | Non-toxic | –
2 | O=C(Cc1ccc(O)c(O)c1)OCCc1ccc(O)cc1 | 41.6 µM | Non-toxic | inactive | > 100 µM | Non-toxic | inhibition [6]: Active
3 | COc1cc(/C=C/C(=O)OCCc2ccc(O)cc2)cc(OC)c1OC | 46.7 µM | Non-toxic | inactive | > 100 µM | Non-toxic | inhibition [6]: Active
4 | CCn1cc(C(=O)OCCc2ccc(O)cc2)c(=O)c2ccc(C)nc21 | – | Non-toxic | – | – | Non-toxic | Activity [7]: 60%; Activity [8]: 36%
5 | O=C(NCc1ccccc1)OCCc1ccc(O)cc1 | > 100 µM | Non-toxic | – | > 100 µM | Non-toxic | –
6 | Cc1[nH]c(/C=C2\C(=O)Nc3ccc(S(=O)(=O)N(C)c4cccc(Cl)c4)cc32)c(C)c1C(=O)N1CCN(C)CC1 | – | – | – | – | – | inhibition [9]: Active
7 | C/C=C(/C=O)[C@@H](CC=O)CC(=O)OCCc1ccc(O)cc1 [(-)-OLEOCANTHAL] | – | Non-toxic | inactive | – | Non-toxic | inhibition [10]: 93.4%; inhibition [11]: Active; inhibition [12]: Active
8 | COc1cc(/C=C/C(=O)OCCc2ccc(O)cc2)cc(OC)c1O [TYROSOL SINAPATE] | – | Non-toxic | inactive | – | Non-toxic | inhibition at 20 µM [13]: > 50%; inhibition [6]: Active

More lines, main results first:

Row | IC50 [5] | Compound | Activity [1] | inhibition [2] | IC50 [3] | Activity [4] | further results
9 | > 100 µM | Cc1ccc(S(=O)(=O)NC(=O)OCCc2ccc(O)cc2)cc1 [4-HYDROXYPHENETHYL TOSYLCARBAMATE] | Non-toxic | inactive | > 100 µM | Non-toxic | –
10 | 13.8 µM | C=C[C@@H]1[C@H](O)OC=C(C(=O)OC)[C@H]1CC(=O)OCCc1ccc(O)cc1 [LIGSTROSIDE AGLYCONE] | Non-toxic | – | 80.4 µM | Non-toxic | inhibition at 20 µM [13]: > 50%; inhibition at 25 µM [6]: 60%
11 | > 100 µM | O=C(/C=C/c1ccc(O)c(O)c1)OCCc1ccc(O)cc1 [TYROSOL CAFFEATE] | Non-toxic | inactive | > 100 µM | Non-toxic | inhibition at 20 µM [13]: > 50%
12 | > 100 µM | COc1cc(CC(=O)OCCc2ccc(O)cc2)ccc1O [TYROSOL HOMOVANILLATE] | Non-toxic | inactive | > 100 µM | Non-toxic | –
13 | 19.4 µM | COc1cc(C(=O)OCCc2ccc(O)cc2)cc(OC)c1O [TYROSOL SYRINGATE] | Non-toxic | inactive | > 100 µM | Non-toxic | inhibition at 25 µM [6]: 60%
14 | > 100 µM | OCCc1ccc(O)cc1 [TYROSOL] | Non-toxic | – | > 100 µM | Non-toxic | inhibition [14]: inactive

Source: ChEMBL document CHEMBL2346504, “Olive secoiridoids and semisynthetic bioisostere analogues for the control of metastatic breast cancer” (Bioorg Med Chem, 2013)
